Results taken from EPA's ToxValDB 9.5.

Tests used:
Canidae [1] = conditions: chronic, oral, diet, Dog Other
Canidae [2] = conditions: chronic, oral, diet, M/F, Dog Other
Rattus norvegicus [3] = conditions: Hershberger; duration: 10 days; oral; gavage; Sprague-Dawley; inactive + Negative + Negative + neither + negative
Mus musculus [4] = conditions: repeat dose other; oral
Mus musculus [5] = conditions: short-term, inhalation, M, immunological
Rattus norvegicus [6] = conditions: subchronic, oral, Fischer 344
Rattus norvegicus [7] = conditions: for LC50 / LD50: acute; for LC50: inhalation; for LD50 / NOAEL: oral
Mus musculus [8] = test system: Mus musculus
Oryctolagus sp. [9] = conditions: acute, dermal
Canidae [10] = conditions: subchronic, oral, diet, Beagle
Oryctolagus sp. [11] = conditions: subchronic; inhalation; M; New Zealand White / Sprague-Dawley; testicular effects
Rattus norvegicus [12] = conditions: chronic; duration: 16 weeks; oral; diet; Kidney: Degeneration
Rattus norvegicus [13] = test system: Rattus norvegicus
Oryctolagus sp. [14] = conditions: oral, gavage, New Zealand
Rattus norvegicus [15] = conditions: subchronic; duration: 6 weeks; inhalation; M/F; Sprague-Dawley; neurotoxicity: tremors and ruffled pelt
Homo sapiens = conditions: clinical; duration: 1 days; inhalation; M/F; respiratory
Bird = conditions: oral, diet
[16] = duration: 2 years, kidney and spleen pathology
[17] = duration: 1 years, kidney and liver toxicity
[18] = reproduction developmental, duration: 6 days, inhalation, Crl: CFW(SW)Br, Charles River Laboratories, generation: F1
[19] = reproduction developmental, inhalation, M, CD1

CNC(=O)ON=C(C)SC [Methomyl]
NOEL (Canidae [1]; duration: 24 months, Kidney: Lesions): 2.5 mg/kg-day | LEL (Canidae [2]; [16]): 10 mg/kg-day | NOEL (Canidae [2]; [16]): 2.5 mg/kg-day | NOEL (Rattus norvegicus [3]): 1 mg/kg-day

Cc1cc(Cl)ccc1OCC(=O)O [2-(4-Chloro-2-methylphenoxy)acetic acid]
NOEL (Canidae [1]; duration: 52 weeks, Kidney: Effects + Liver: Effects): 0.15 mg/kg-day | LEL (Canidae [2]; [17]): 0.75 mg/kg-day | NOEL (Canidae [2]; [17]): 0.15 mg/kg-day

CCOP(=S)(OCC)SCSC(C)(C)C [Terbufos]
NOAEL (Canidae [1]; duration: 6 months, Cholinesterase: Inhibition): 0.0025 mg/kg-day

c1ccccc1 [Benzene]
LOAEL (Mus musculus [4]): 264 mg/kg-day | NOAEL (Mus musculus [4]): 26.4 mg/kg-day | LOAEL (Mus musculus [5]; duration: 6 days, whole body, C57BL/6): 32.6 mg/m3 | LOAEL (Mus musculus [5]; duration: 20 days, C57Bl/6): 31.9 mg/m3 | NOEL (Rattus norvegicus [6]; duration: 13 weeks, gavage, M/F, Deaths + Body Weight Changes: decrease + Hematology: WBC decrease, Lympho decrease + Histopathology: Spleen-B-cell depletion Spleen-…): < 25 mg/kg-day | LC50 (Rattus norvegicus [7]; Sprague-Dawley): 43800 mg/m3 | LOAEL (Mus musculus [8]; repeat dose other, inhalation, CD1): 31.9 mg/m3 | LOAEL (Mus musculus [8]; [18]): 63.9 mg/m3 | NOAEL (Mus musculus [8]; [18]): 31.9 mg/m3 | NOAEL (Mus musculus [8]; reproduction developmental, duration: 6 days, inhalation, F, Crl: CFW(SW)Br, Charles River Laboratories): 63.9 mg/m3 | LOAEL (Mus musculus [8]; reproduction developmental, inhalation, F, CD1): 958 mg/m3 | LOAEL (Mus musculus [8]; [19]): 958 mg/m3 | NOAEL (Mus musculus [8]; [19]): 95.8 mg/m3

CC(C)(C)c1cc(CCC(=O)OCC(COC(=O)CCc2cc(C(C)(C)C)c(O)c(C(C)(C)C)c2)(COC(=O)CCc2cc(C(C)(C)C)c(O)c(C(C)(C)C)c2)COC(=O)CCc2cc(C(C)(C)C)c(O)c(C(C)(C)C)c2)cc(C(C)(C)C)c1O [Irganox 1010]
LC50 (Rattus norvegicus [7]): > 1.96 µg/mL | LD50 (Rattus norvegicus [7]): > 5000 mg/kg | NOAEL (Rattus norvegicus [7]; developmental, duration: 10 days, gavage, Sprague-Dawley): 1000 mg/kg-day | NOAEL (Rattus norvegicus [7]; reproduction developmental, duration: 10 months, diet, generation: F0): 10000 ppm | NOAEL (Rattus norvegicus [7]; reproduction developmental, duration: 10 months, diet, generation: F1): 10000 ppm | NOAEL (Rattus norvegicus [7]; reproduction developmental, duration: 10 months, diet, generation: F2): 10000 ppm | NOAEL (Rattus norvegicus [7]; subchronic, duration: 3 months, diet, Sprague-Dawley): 2500 mg/kg-day | NOAEL (Mus musculus [8]; developmental, duration: 10 days, oral, gavage): 1000 mg/kg-day | NOAEL (Mus musculus [8]; developmental, duration: 10 days, oral, gavage, NMRI): 1000 mg/kg-day | NOAEL (Mus musculus [8]; reproduction developmental, duration: 10 days, oral, gavage, F): 1000 mg/kg-day | LD50 (Oryctolagus sp. [9]): > 3160 mg/kg | NOAEL (Canidae [10]; duration: 3 months): 322 mg/kg-day

[Hg+2].[S-2] [Mercury sulfide (HgS)]
NOAEL (Mus musculus [4]): 13.2 mg/kg-day

COCCO [2-Methoxyethanol]
LOAEL (Oryctolagus sp. [11]): 311 mg/m3 | NOAEL (Oryctolagus sp. [11]): 93 mg/m3 | NOEL (Rattus norvegicus [6]; drinking water, F, Deaths + Clinical Observation: Tremors Diarrhea Emaciation Abnormal posture Pallor Tachypnea Comatose state + Body Weight Changes: decrease…): 70 mg/kg-day | NOEL (Rattus norvegicus [6]; drinking water, M/F, Deaths + Clinical Observation: Tremors Diarrhea Emaciation Abnormal posture Pallor Tachypnea Comatose state + Body Weight Changes: decrease…): < 114 mg/kg-day

ClC(Cl)(Cl)C(Cl)(Cl)Cl [Hexachloroethane]
NOAEL (Rattus norvegicus [12]): 1 mg/kg-day | NOAEL (Rattus norvegicus [13]; chronic, duration: 16 weeks, oral, diet, M/F, Fischer 344, hepatic): 1 mg/kg-day | NOAEL (Rattus norvegicus [13]; reproduction developmental, duration: 10 days, inhalation, F, Sprague-Dawley, neurological): 465 mg/m3 | NOAEL (Rattus norvegicus [13]; subchronic, duration: 6 weeks, inhalation, M/F, Sprague-Dawley, neurological): 465 mg/m3 | NOAEL (Oryctolagus sp. [14]; short-term, duration: 12 days, M, hepatic): 100 mg/kg-day | NOAEL (Rattus norvegicus [15]): 465 mg/m3 | NOEL (Rattus norvegicus [6]; duration: 13 weeks, gavage, M/F, Deaths + Clinical Observation: Hyperactivity Convulsions + Body Weight Changes: decrease + Relative Organ Weight: Liver increase, Brain …): < 47 mg/kg-day

[B] [Boron]
NOAEL (Oryctolagus sp. [14]; developmental, duration: 13 days, M/F, developmental): 22 mg/kg-day | NOAEL (Homo sapiens): 0.8 mg/m3

CC(C)(C)c1cc(CCC(=O)OCCSCCOC(=O)CCc2cc(C(C)(C)C)c(O)c(C(C)(C)C)c2)cc(C(C)(C)C)c1O
LC50 (Rattus norvegicus [7]; whole body): > 6300 mg/m3 | LD50 (Rattus norvegicus [7]; gavage): > 5000 mg/kg | NOAEL (Rattus norvegicus [7]; chronic, duration: 93 days, diet, F): 4.5 mg/kg-day | NOAEL (Rattus norvegicus [7]; chronic, duration: 93 days, diet, M): 4.4 mg/kg-day | NOAEL (Rattus norvegicus [7]; subchronic, duration: 90 days, diet): 960 mg/kg-day | LD50 (Oryctolagus sp. [9]; occlusive, New Zealand): > 3000 mg/kg | NOAEL (Canidae [10]; duration: 90 days): 74 mg/kg-day

Cc1cc(C(C)(C)c2ccc(O)c(C)c2)ccc1O [3,3'-Dimethylbisphenol A]
NOEL (Bird; short-term, duration: 1 month, M, Chicken, body weight): 0.3% | LOEL (Bird; short-term, duration: 1 month, M, Chicken, mortality): 0.3% | NOEL (Bird; subchronic, duration: 12 week, M/F, White leghorn chicken, mortality): 0.3% | LOEL (Bird; subchronic, duration: 12 week, M, White leghorn chicken, body weight): 0.3% | NOEL (Bird; subchronic, duration: 12 week, M, White leghorn chicken, body weight + mortality): 0.3%

CC(C)CCCCCCOC(=O)CCCCC(=O)OCCCCCCC(C)C [Diisononyl adipate]
LD50 (Rattus norvegicus [7]; gavage): > 10000 mg/kg | NOAEL (Rattus norvegicus [7]; subchronic, duration: 13 weeks, diet): 500 mg/kg-day | LD50 (Oryctolagus sp. [9]): > 3160 mg/kg | NOAEL (Canidae [10]; duration: 13 weeks): 274 mg/kg-day
